The test system of data set [1] is CHO cells expressing FVIII. The format is cell-based, Chinese hamster. Here is the method: In order to determine the effect of DDAO levels in cell growth, experiments were undertaken using CHO cells expressing FVIII with varying levels of DDAO equivalent to the contaminating amount in certain lots of commercial soy hydrolysate.
Cells from a bioreactor containing CHO cells in BAV serum free media, DMEM/HAM's F12 medium (11.76 g) supplemented with soya-peptone (4 g), ethanolamine (1.53 mg), L-glutamine (0.6 g), NaHCO3 (2.0 g) and SYNPERONIC (PLURONIC®) F68 (0.25 g) (see International Patent Publ. WO/2006/045438) were cultured with 4 g/L soy peptone in 60 mL Roux flasks. Roux flasks provide a static, unmoving environment for the cells to grow.

The subject of data set [2] is Bacillus bacteria. To be noted: Bacillus bacteria in culture; Brycki et al.; cited from earlier work.
Data set [3] relates to CHO cells. In words: DDAO spiked into media at 0-50 ppm or equivalent ppb, in duplicate by serial dilution; cell growth and viability. It counts as cell-based, Chinese hamster. The source says: In separate experiments, DDAO was spiked into media at differing concentrations between 0-50 ppm or equivalent ppb in duplicate using serial dilution of high DDAO containing-media to reduce error (FIGS. 3 and 4).

For `CCCCCCCCCCCC[N+](C)(C)[O-]` [DDAO, dodecyldimethylamine oxide], the “DDAO level above which toxicity is shown” value in data set [1] (Chinese hamster) is on record as “above 21.5 ppm”. Moreover, the “DDAO level up to which there is a positive effect on cell growth” value in data set [1] (ppm equivalent in the soy hydrolysate, Roux flasks) was “up to 20 ppm”. In addition, the “DDAO level above which the process of denitrification is slowed” value in data set [2] is “above 75 parts per million”. The “DDAO level up to which there is a beneficial effect on cell growth” value was 5-10 ppb in data set [3] (FIG. 3) and 6-10 ppm in data set [3] (FIG. 4, duplicate samples).
